Data reported in the supplement of paper PMC10307832.

Key:
Assay in all cases: relative viability (nuclei count vs DMSO), 5 days (fraction); higher = more cells survive
[1] = compound: COc1cc2ncn(-c3cc(OCc4ccccc4C(F)(F)F)c(C(N)=O)s3)c2cc1OC + CC1(C)CCC(c2ccc(Cl)cc2)=C(CN2CCN(c3ccc(C(=O)NS(=O)(=O)c4ccc(N[C@H](CCN5CCOCC5)CSc5ccccc5)c(S(=O)(=O)C(F)(F)F)c4)cc3)CC2)C1 [Navitoclax] (partner 0.5 µM)
Method in brief: (§1)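 A single step with final 0.05% Triton X-100, 1% formaldehyde and 1 ug/ml Hoechst fixed the cells and stained nuclei 5 days after treatment. Lung cancer cell lines in 1536-well plates had been treated by pin tool the day after seeding with one drug alone or a fixed anchor-drug dose plus five library-drug doses (not always all listed) in √10 steps, and nuclei were counted on 4× images. Relative viability is the ratio of nuclei in treated wells to nuclei in vehicle wells, taken as the median of duplicate plates.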

[2] = compound: COc1cc2ncn(-c3cc(OCc4ccccc4C(F)(F)F)c(C(N)=O)s3)c2cc1OC + O=C(CCCCCCC(=O)Nc1ccccc1)NO [Vorinostat] (partner 1 µM)
Method in brief: as §1

[3] = compound: COc1cc2ncn(-c3cc(OCc4ccccc4C(F)(F)F)c(C(N)=O)s3)c2cc1OC + C[C@@H](Oc1cc(-c2cnn(C3CCNCC3)c2)cnc1N)c1c(Cl)ccc(F)c1Cl [Crizotinib] (partner 1 µM)
Method in brief: as §1

[4] = compound: COc1cc2ncn(-c3cc(OCc4ccccc4C(F)(F)F)c(C(N)=O)s3)c2cc1OC + Cc1cc(Nc2cc(N3CCN(C)CC3)nc(Sc3ccc(NC(=O)C4CC4)cc3)n2)n[nH]1 [Tozasertib] (partner 0.1 µM)
Method in brief: as §1

| Cell Line | relative viability ([1]; first compound 0.05 µM) | relative viability ([1]; first compound 0.1581 µM) | relative viability ([1]; first compound 0.5 µM) | relative viability ([1]; first compound 1.581 µM) | relative viability ([1]; first compound 5 µM) | relative viability ([2]; first compound 0.05 µM) | relative viability ([2]; first compound 0.1581 µM) | relative viability ([2]; first compound 0.5 µM) | relative viability ([2]; first compound 1.581 µM) | relative viability ([2]; first compound 5 µM) | relative viability ([3]; first compound 0.05 µM) | relative viability ([3]; first compound 0.1581 µM) | relative viability ([3]; first compound 0.5 µM) | relative viability ([3]; first compound 1.581 µM) | relative viability ([3]; first compound 5 µM) | relative viability ([4]; first compound 0.05 µM) | relative viability ([4]; first compound 0.1581 µM) | relative viability ([4]; first compound 0.5 µM) | relative viability ([4]; first compound 1.581 µM) | relative viability ([4]; first compound 5 µM) |
| --- | --- | --- | --- | --- | --- | --- | --- | --- | --- | --- | --- | --- | --- | --- | --- | --- | --- | --- | --- | --- |
| CAL-12T | 1.09 | 1.11 | 0.573 | 0.231 | 0.148 | 0.674 | 0.558 | 0.268 | 0.141 | 0.159 | 0.705 | 0.377 | 0.207 | 0.126 | 0.124 | 0.316 | 0.26 | 0.208 | 0.164 | 0.2 |
| EPLC-272H | 1.12 | 0.982 | 0.255 | 0.0998 | 0.0968 | 0.175 | 0.181 | 0.0719 | 0.077 | 0.12 | 0.86 | 0.709 | 0.323 | 0.0912 | 0.134 | – | 0.306 | 0.169 | 0.148 | 0.147 |
| NCI-H2405 | 0.931 | 0.69 | 0.16 | 0.0992 | 0.0957 | 1.21 | 0.676 | 0.38 | 0.386 | 0.254 | 0.84 | 0.682 | 0.595 | 0.357 | 0.463 | 0.88 | 0.803 | 0.368 | 0.325 | 0.327 |
| HCC-15 | 0.695 | 0.641 | 0.316 | 0.104 | 0.0943 | 0.618 | 0.769 | 0.349 | 0.139 | 0.127 | 0.855 | 0.716 | 0.461 | 0.152 | 0.11 | 0.509 | 0.394 | 0.138 | 0.151 | 0.139 |
| RERF-LC-KJ | 0.993 | 0.874 | 0.416 | 0.23 | 0.414 | 0.696 | 0.626 | 0.33 | 0.287 | 0.345 | 0.813 | 0.887 | 0.766 | – | 0.545 | 0.476 | 0.646 | 0.247 | 0.248 | 0.257 |
| NCI-H1944 | 1.04 | 1.06 | 0.785 | 0.189 | 0.123 | 0.609 | 0.602 | 0.456 | 0.166 | 0.127 | 1.32 | 1.18 | 1.1 | 0.351 | 0.113 | 0.297 | 0.3 | 0.274 | 0.23 | 0.216 |
